Here are results for 20 molecules from patent publication US11787785B2 (NOVARTIS AG, priority 2021, dated 2023).

This experiment has as its target T1, WIZ protein (HiBit-WIZ fusion protein) (Homo sapiens, UniProt O95785+Q96SW2).
T1 construct: expressed in transfected cells
Put plainly: Quantification of WIZ protein levels in HiBit tag fusion protein assay (WIZ HiBit assay in 293T cells). The class given is cell-based. The arrangement: remaining activity / Dmax: dose or concentration left out as unconfirmed. As to conditions: for DC50: WIZ HiBit assay in 293T cells, 10-point, 5-fold dose response, highest concentration 25 μM, about 18 hours, read-out: WIZ AC50; for Dmax at 25 µM: 100 − Amax; for Dmax at 25 µM / remaining activity at 25 µM: 293T cells; for remaining activity at 25 µM: DMSO-normalized, curve-fitted percentage of WIZ-HiBit remaining at 25 uM. In a few lines:
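HiBit-tagged WIZ (N-terminal tag, HSVTK promoter) stably expressed single-copy in 293T cells; 10-point 1:5 compound series, top 25 μM, ~18 h at 37 °C. Lytic HiBit/LgBit luminescence read; Amax = curve-fitted % WIZ-HiBit remaining at 25 μM, DMSO normalized to 100%.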
(HiBiT is a short tag that completes a luciferase, so light tracks the accessible tagged protein.)

[1] abbreviates: HEK-293T, read-out: % degradation of WIZ (100 − Amax).

T1 sequence (O95785 whole entry, the tested form may be a part): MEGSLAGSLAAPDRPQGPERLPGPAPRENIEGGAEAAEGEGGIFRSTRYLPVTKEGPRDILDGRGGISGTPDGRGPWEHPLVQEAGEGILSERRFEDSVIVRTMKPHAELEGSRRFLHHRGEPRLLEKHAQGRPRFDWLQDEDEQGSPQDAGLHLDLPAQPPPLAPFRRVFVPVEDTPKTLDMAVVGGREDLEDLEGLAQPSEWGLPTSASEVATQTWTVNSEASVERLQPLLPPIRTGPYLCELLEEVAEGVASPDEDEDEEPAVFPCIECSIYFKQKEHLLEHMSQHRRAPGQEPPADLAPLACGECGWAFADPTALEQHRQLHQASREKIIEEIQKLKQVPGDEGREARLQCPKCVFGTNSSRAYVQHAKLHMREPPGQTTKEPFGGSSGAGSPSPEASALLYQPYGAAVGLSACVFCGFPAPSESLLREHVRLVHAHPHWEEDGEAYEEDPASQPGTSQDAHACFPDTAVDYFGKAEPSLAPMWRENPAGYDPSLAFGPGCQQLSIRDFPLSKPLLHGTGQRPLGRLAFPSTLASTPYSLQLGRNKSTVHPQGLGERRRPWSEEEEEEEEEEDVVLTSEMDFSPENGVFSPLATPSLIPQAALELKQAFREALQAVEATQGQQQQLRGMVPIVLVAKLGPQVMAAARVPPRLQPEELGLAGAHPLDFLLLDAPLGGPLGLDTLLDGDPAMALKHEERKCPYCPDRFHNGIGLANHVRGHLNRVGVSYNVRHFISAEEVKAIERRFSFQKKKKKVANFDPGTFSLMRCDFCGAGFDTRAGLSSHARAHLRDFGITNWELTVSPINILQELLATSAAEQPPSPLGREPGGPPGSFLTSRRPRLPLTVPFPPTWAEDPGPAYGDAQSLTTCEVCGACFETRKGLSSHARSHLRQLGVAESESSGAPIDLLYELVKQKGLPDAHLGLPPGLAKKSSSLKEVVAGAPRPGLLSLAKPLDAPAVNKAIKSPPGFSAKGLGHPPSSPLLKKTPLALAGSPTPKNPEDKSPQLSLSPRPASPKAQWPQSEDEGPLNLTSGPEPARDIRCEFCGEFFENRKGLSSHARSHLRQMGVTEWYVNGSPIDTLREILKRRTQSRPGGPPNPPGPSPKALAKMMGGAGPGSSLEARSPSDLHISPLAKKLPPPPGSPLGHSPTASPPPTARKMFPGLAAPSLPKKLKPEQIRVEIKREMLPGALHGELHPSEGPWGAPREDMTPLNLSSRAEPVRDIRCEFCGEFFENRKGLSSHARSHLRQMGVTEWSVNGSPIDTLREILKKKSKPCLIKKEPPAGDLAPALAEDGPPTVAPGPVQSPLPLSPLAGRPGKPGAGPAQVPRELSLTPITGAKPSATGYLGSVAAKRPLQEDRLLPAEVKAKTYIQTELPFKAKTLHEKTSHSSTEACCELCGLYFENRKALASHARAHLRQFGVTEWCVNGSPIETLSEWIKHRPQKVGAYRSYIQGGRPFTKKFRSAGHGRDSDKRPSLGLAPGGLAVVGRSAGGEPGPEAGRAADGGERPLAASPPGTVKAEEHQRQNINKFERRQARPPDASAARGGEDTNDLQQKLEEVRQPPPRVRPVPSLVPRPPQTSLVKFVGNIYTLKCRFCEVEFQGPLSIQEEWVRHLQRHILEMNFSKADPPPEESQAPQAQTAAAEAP
T1 sequence (Q96SW2 whole entry, the tested form may be a part): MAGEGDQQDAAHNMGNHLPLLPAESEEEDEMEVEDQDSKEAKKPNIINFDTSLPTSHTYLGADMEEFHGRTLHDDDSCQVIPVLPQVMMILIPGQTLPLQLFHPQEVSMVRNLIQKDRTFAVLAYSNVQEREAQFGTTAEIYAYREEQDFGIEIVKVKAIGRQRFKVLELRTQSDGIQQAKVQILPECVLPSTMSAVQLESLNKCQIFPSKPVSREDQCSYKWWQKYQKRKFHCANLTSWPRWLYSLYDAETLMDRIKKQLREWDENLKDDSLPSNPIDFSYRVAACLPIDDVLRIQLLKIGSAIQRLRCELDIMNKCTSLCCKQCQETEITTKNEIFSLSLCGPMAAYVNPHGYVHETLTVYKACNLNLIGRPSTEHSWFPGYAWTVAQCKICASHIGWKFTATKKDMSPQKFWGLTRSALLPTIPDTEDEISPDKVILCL
T1 sequence (Q16531 whole entry partner, the tested form may be a part): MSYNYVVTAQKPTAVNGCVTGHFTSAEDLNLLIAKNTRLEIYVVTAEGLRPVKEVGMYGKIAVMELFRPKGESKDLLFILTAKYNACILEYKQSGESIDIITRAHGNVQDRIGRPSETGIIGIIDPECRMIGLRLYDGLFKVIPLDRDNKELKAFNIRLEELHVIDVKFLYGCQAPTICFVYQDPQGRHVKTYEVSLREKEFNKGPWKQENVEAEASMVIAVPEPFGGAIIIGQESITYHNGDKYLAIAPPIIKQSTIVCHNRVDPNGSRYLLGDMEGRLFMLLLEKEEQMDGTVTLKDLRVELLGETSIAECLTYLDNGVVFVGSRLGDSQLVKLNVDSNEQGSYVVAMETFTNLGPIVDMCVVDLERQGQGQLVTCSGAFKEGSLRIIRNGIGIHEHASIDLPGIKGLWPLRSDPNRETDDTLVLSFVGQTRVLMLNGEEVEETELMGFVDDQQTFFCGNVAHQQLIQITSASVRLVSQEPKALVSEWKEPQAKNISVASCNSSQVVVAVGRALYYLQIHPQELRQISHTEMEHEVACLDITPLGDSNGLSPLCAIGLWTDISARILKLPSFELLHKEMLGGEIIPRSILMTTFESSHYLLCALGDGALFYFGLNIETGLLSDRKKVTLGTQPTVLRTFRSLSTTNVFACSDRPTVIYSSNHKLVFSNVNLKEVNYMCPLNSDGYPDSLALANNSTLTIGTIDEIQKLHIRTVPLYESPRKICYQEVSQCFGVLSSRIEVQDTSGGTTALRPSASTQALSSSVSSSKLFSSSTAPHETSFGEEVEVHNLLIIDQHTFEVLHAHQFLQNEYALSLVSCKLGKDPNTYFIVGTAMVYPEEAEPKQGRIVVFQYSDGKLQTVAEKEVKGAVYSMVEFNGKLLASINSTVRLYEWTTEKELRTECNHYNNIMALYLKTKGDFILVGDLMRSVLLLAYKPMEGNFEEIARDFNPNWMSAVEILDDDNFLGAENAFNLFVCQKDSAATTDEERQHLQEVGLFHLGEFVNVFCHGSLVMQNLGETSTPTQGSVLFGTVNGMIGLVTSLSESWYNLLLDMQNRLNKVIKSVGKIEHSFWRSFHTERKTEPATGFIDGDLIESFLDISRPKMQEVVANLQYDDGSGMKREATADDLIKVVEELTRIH

`C[C@H]1CN(Cc2ccn3ncc(N4CCC(=O)NC4=O)c3c2)CCN1C1CCC1` [Example 329, (S)-1-(5-((4-cyclobutyl-3-methylpiperazin-1-yl)methyl)pyrazolo[1,5-a]pyridin-3-yl)dihydropyrimidine-2,4(1H,3H)-dione]: the DC50 was found to be 166 nM. Moreover, under setting [1], the Dmax was 83%. Where the note is “HEK-293T, read-out: WIZ Amax”, the remaining activity stood at 17%.
On to `C[C@H]1CN(Cc2ccn3ncc(N4CCC(=O)NC4=O)c3c2)CCN1C1CCOCC1` [Example 330], for which the DC50 turned out to be 41 nM. The Dmax at 25 µM under setting [1] amounted to 82%. Under “HEK-293T, read-out: WIZ Amax”, the remaining activity at 25 µM came out at 18%.
On the same counts, the results for `C[C@H]1CN(Cc2ccn3ncc(N4CCC(=O)NC4=O)c3c2)CCN1C1COC1` [Example 331] are 73 nM, 76% and 24%.
For the molecule `C[C@H]1CN(Cc2ccn3ncc(N4CCC(=O)NC4=O)c3c2)CCN1C1CC2(COC2)C1` [Example 332], the DC50 was 22000 nM. Also, the Dmax at 25 µM under setting [1] was determined as 49%. For the same molecule, the remaining activity at 25 µM (HEK-293T, read-out: WIZ Amax) was determined as 51%.
The corresponding values for `C[C@H]1CN(Cc2ccn3ncc(N4CCC(=O)NC4=O)c3c2)CCN1C1CCCCC1` [Example 333] are 68 nM, 87% and 13%.
On the same counts, the results for `C[C@H]1CN(Cc2ccn3ncc(N4CCC(=O)NC4=O)c3c2)CCN1C1CCC(F)(F)CC1` [Example 334] are 32 nM, 85% and 15%.
The corresponding values for `C[C@H]1CN(Cc2ccn3ncc(N4CCC(=O)NC4=O)c3c2)CCN1C1CC2(CCC2)C1` [Example 335] are 6 nM, 88% and 12%.
Take `C[C@H]1CN(Cc2ccn3ncc(N4CCC(=O)NC4=O)c3c2)CCN1C1CC2(C1)CN(C)C2` [Example 336, (S)-1-(5-((3-methyl-4-(2-methyl-2-azaspiro[3.3]heptan-6-yl)piperazin-1-yl)methyl)pyrazolo[1,5-a]pyridin-3-yl)dihydropyrimidine-2,4(1H,3H)-dione]: the DC50 was found to be 12000 nM. Moreover, the Dmax at 25 µM under setting [1] was 76%. In addition, the remaining activity at 25 µM (HEK-293T, read-out: WIZ Amax) was found to be 24%.
On the same counts, the results for `C[C@H]1CN(Cc2ccn3ncc(N4CCC(=O)NC4=O)c3c2)CCN1C1CC2(C1)CN(S(C)(=O)=O)C2` [Example 337, (S)-1-(5-((3-methyl-4-(2-(methylsulfonyl)-2-azaspiro[3.3]heptan-6-yl)piperazin-1-yl)methyl)pyrazolo[1,5-a]pyridin-3-yl)dihydropyrimidine-2,4(1H,3H)-dione] are 399 nM, 83% and 17%.
On the same counts, the results for `O=C1CCN(c2cnn3ccc(CN4CCN(C5CCCCC5)CC4)cc23)C(=O)N1` [Example 338, 1-(5-((4-cyclohexylpiperazin-1-yl)methyl)pyrazolo[1,5-a]pyridin-3-yl)dihydropyrimidine-2,4(1H,3H)-dione] are 33 nM, 83% and 17%.
In the case of `CCS(=O)(=O)N1CCN(Cc2ccn3ncc(N4CCC(=O)NC4=O)c3c2)C[C@@H]1C` [Example 339, (S)-1-(5-((4-(ethylsulfonyl)-3-methylpiperazin-1-yl)methyl)pyrazolo[1,5-a]pyridin-3-yl)dihydropyrimidine-2,4(1H,3H)-dione], the DC50 turned out to be 715 nM. Also, the Dmax at 25 µM under setting [1] was found to be 35%. The remaining activity at 25 µM (HEK-293T, read-out: WIZ Amax) is 65%.
The corresponding values for `C[C@H]1CN(Cc2ccn3ncc(N4CCC(=O)NC4=O)c3c2)CCN1C(=O)C1CC1` [Example 340, (S)-1-(5-((4-(cyclopropanecarbonyl)-3-methylpiperazin-1-yl)methyl)pyrazolo[1,5-a]pyridin-3-yl)dihydropyrimidine-2,4(1H,3H)-dione] are 862 nM, 32% and 68%.
On to `CC(C)C(=O)N1CCN(Cc2ccn3ncc(N4CCC(=O)NC4=O)c3c2)C[C@@H]1C` [Example 341, (S)-1-(5-((4-isobutyryl-3-methylpiperazin-1-yl)methyl)pyrazolo[1,5-a]pyridin-3-yl)dihydropyrimidine-2,4(1H,3H)-dione], for which the DC50 stood at 799 nM. Also, under setting [1], the Dmax at 25 µM was determined as 30%. Moreover, the remaining activity at 25 µM (HEK-293T, read-out: WIZ Amax) was found to be 70%.
As for `C[C@H]1CN(Cc2ccn3ncc(N4CCC(=O)NC4=O)c3c2)CCN1C(=O)C1CCCCC1` [Example 342, (S)-1-(5-((4-(cyclohexanecarbonyl)-3-methylpiperazin-1-yl)methyl)pyrazolo[1,5-a]pyridin-3-yl)dihydropyrimidine-2,4(1H,3H)-dione], the DC50 worked out at 916 nM. Besides, under setting [1], the Dmax at 25 µM was determined as 37%. Moreover, the remaining activity at 25 µM (HEK-293T, read-out: WIZ Amax) stood at 63%.
The corresponding values for `C[C@H]1CN(Cc2ccn3ncc(N4CCC(=O)NC4=O)c3c2)CCN1C(=O)C1CCCC1` [Example 343, (S)-1-(5-((4-(cyclopentanecarbonyl)-3-methylpiperazin-1-yl)methyl)pyrazolo[1,5-a]pyridin-3-yl)dihydropyrimidine-2,4(1H,3H)-dione] are 495 nM, 46% and 54%.
The corresponding values for `C[C@H]1CN(Cc2ccn3ncc(N4CCC(=O)NC4=O)c3c2)CCN1C(=O)C1CCC1` [Example 344, (S)-1-(5-((4-(cyclobutanecarbonyl)-3-methylpiperazin-1-yl)methyl)pyrazolo[1,5-a]pyridin-3-yl)dihydropyrimidine-2,4(1H,3H)-dione] are 1070 nM, 35% and 65%.
As to `CC(C)CN1CCN(C(C)c2ccn3ncc(N4CCC(=O)NC4=O)c3c2)CC1` (stereo not drawn) [Example 345, 1-(5-(1-(4-isobutylpiperazin-1-yl)ethyl)pyrazolo[1,5-a]pyridin-3-yl)dihydropyrimidine-2,4(1H,3H)-dione], the DC50 worked out at 191 nM. Besides, the Dmax at 25 µM under setting [1] was found to be 73%. Further, the remaining activity at 25 µM (HEK-293T, read-out: WIZ Amax) was 27%.
For the molecule `CC(C)CN1CC[C@@H](Cc2ccn3ncc(-n4ccc(=O)[nH]c4=O)c3c2)C[C@@H]1C` [Example 346, 1-(5-(((2S,4R)-1-isobutyl-2-methylpiperidin-4-yl)methyl)pyrazolo[1,5-a]pyridin-3-yl)pyrimidine-2,4(1H,3H)-dione], the DC50 is 108 nM. For the same molecule, the Dmax at 25 µM under setting [1] worked out at 87%. For the same molecule, the remaining activity at 25 µM (HEK-293T, read-out: WIZ Amax) was determined as 13%.
The corresponding values for `Cc1cn(-c2cnn3ccc(C[C@@H]4CCN(CC(C)C)[C@@H](C)C4)cc23)c(=O)[nH]c1=O` [Example 347, 1-(5-(((2S,4R)-1-isobutyl-2-methylpiperidin-4-yl)methyl)pyrazolo[1,5-a]pyridin-3-yl)-5-methylpyrimidine-2,4(1H,3H)-dione] are 378 nM, 89% and 11%.
The corresponding values for `Cc1cn(-c2cnn3ccc(C[C@@H]4CCN(CC5CC5)[C@@H](C)C4)cc23)c(=O)[nH]c1=O` [Example 348, 1-(5-(((2S,4R)-1-(cyclopropylmethyl)-2-methylpiperidin-4-yl)methyl)pyrazolo[1,5-a]pyridin-3-yl)-5-methylpyrimidine-2,4(1H,3H)-dione] are 400 nM, 86% and 14%.
